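Five compound concentrations were applied to cells in 96-well plates for 48 hours; endpoints were derived by simple linear interpolation of the resulting dose-response curve. Abbreviation: GI50, concentration required for 50% inhibition of growth.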 The source made the active and inactive calls. Cut-off read from the data, not from the text of the source: active = GI50 up to about 1.1 µM and inactive = higher. Peptide text beside a SMILES is read from it. * marks the point of attachment. Cbz = O=C(OCc1ccccc1)*
Tests used:
Experiment in all cases: DTP human tumour cell line panel, 48 h
A549 = tested on: A549
COLO 205 = tested on: COLO 205
DMS-273 = tested on: DMS-273
HCC 2998 = tested on: HCC 2998
HCT-15 = tested on: HCT-15
IGROV-1 = tested on: IGROV-1
Malme-3M = tested on: Malme-3M
NCI-H226 = tested on: NCI-H226
NCI-H23 = tested on: NCI-H23
OVCAR-4 = tested on: OVCAR-4
OVCAR-8 = tested on: OVCAR-8
SK-MEL-5 = tested on: SK-MEL-5
SNB-75 = tested on: SNB-75
SW-620 = tested on: SW-620
UACC-257 = tested on: UACC-257
LOX IMVI = tested on: LOX IMVI
DU-145 = tested on: DU-145
MDA-MB-435 = tested on: MDA-MB-435
MDA-N = tested on: MDA-N
OVCAR-5 = tested on: OVCAR-5

| SMILES | GI50 (A549) | GI50 (COLO 205) | GI50 (DMS-273) | GI50 (HCC 2998) | GI50 (HCT-15) | GI50 (IGROV-1) | GI50 (Malme-3M) | GI50 (NCI-H226) | GI50 (NCI-H23) | GI50 (OVCAR-4) | GI50 (OVCAR-8) | GI50 (SK-MEL-5) | GI50 (SNB-75) | GI50 (SW-620) | GI50 (UACC-257) | GI50 (LOX IMVI) | GI50 (DU-145) | GI50 (MDA-MB-435) | GI50 (MDA-N) | GI50 (OVCAR-5) |
| --- | --- | --- | --- | --- | --- | --- | --- | --- | --- | --- | --- | --- | --- | --- | --- | --- | --- | --- | --- | --- |
| COCC12CC(CC1=O)C1C2ON2c3ccccc3C(=O)C12c1ccccc1 (centres undefined) | > 100 µM (inactive) | > 100 µM (inactive) | > 100 µM (inactive) | > 100 µM (inactive) | > 100 µM | > 100 µM (inactive) | > 100 µM (inactive) | > 100 µM (inactive) | > 100 µM (inactive) | 4.9 µM (inactive) | > 100 µM (inactive) | > 100 µM (inactive) | > 100 µM (inactive) | > 100 µM (inactive) | 52 µM (inactive) |  |  |  |  |  |
| COCCNC(=O)C1C(=O)N(CCOC)C(=O)/C1=N/N (centres undefined) | > 100 µM (inactive) |  | > 100 µM (inactive) |  | > 100 µM | > 100 µM (inactive) | > 100 µM (inactive) | > 100 µM (inactive) | > 100 µM (inactive) |  |  |  | > 100 µM (inactive) | > 100 µM (inactive) | > 100 µM (inactive) | > 100 µM (inactive) |  |  |  |  |
| CSc1ccc(NC(=O)C2c3[nH]c4ccccc4c3C3CCC(C(C)(C)C)CC3C2C(=O)O)cc1 (centres undefined) | 15.2 µM (inactive) | 18 µM (inactive) | 16.4 µM (inactive) | 33 µM (inactive) | 29.2 µM | 17 µM (inactive) | 20.9 µM (inactive) | 15.3 µM (inactive) | 20.1 µM (inactive) | 18.4 µM (inactive) | 14.8 µM (inactive) | 21.1 µM (inactive) | 17.2 µM (inactive) | 17.7 µM (inactive) | 34.1 µM (inactive) |  |  |  |  |  |
| N=C(N)c1ccc(/N=N\c2c(O)c(C(=O)Nc3ccccc3)cc3ccccc23)cc1 | > 59.6 µM (inactive) | 29 µM (inactive) |  | > 37.6 µM (inactive) | 18.1 µM | 18.7 µM (inactive) | 32.1 µM (inactive) | 34.8 µM (inactive) | 21.9 µM (inactive) | 17.8 µM (inactive) | 16.1 µM (inactive) | 22.4 µM (inactive) | 12.9 µM (inactive) | 15.6 µM (inactive) | > 68.7 µM (inactive) | 2.02 µM (inactive) | > 100 µM (inactive) | 41.5 µM (inactive) | 35.7 µM (inactive) | 31.6 µM (inactive) |
| NC(=O)n1ncc(Cl)c(Cl)c1=O | > 100 µM (inactive) | > 100 µM (inactive) | > 100 µM (inactive) |  | > 100 µM | > 100 µM (inactive) | > 100 µM (inactive) | > 100 µM (inactive) | > 100 µM (inactive) | > 100 µM (inactive) | > 100 µM (inactive) | > 100 µM (inactive) | > 100 µM (inactive) | > 100 µM (inactive) | > 100 µM (inactive) |  |  |  |  | > 100 µM (inactive) |
| O=C(c1ccco1)N(Cc1ccco1)C(=S)Nc1ccccc1 | 29.7 µM (inactive) | 12.9 µM (inactive) |  | 33.1 µM (inactive) | 9.2 µM | 16.1 µM (inactive) | 14.7 µM (inactive) | 66.8 µM (inactive) | 13.5 µM (inactive) | 25.6 µM (inactive) | 19 µM (inactive) | 17.5 µM (inactive) | 18.5 µM (inactive) | 12.4 µM (inactive) | 15.7 µM (inactive) | 7.21 µM (inactive) | 33.2 µM (inactive) | 10.6 µM (inactive) | 10.5 µM (inactive) | 36.5 µM (inactive) |
| Cc1ccc(C2=C(C#N)C(=O)N3CCN=C3S2)cc1 | > 100 µM (inactive) | > 100 µM (inactive) |  | > 100 µM (inactive) | > 100 µM | > 100 µM (inactive) | 43.5 µM (inactive) | > 100 µM (inactive) | > 100 µM (inactive) | > 100 µM (inactive) | > 100 µM (inactive) | > 100 µM (inactive) | > 100 µM (inactive) | > 100 µM (inactive) | > 100 µM (inactive) | > 100 µM (inactive) | > 100 µM (inactive) | > 100 µM (inactive) | > 100 µM (inactive) | > 100 µM (inactive) |
| COC1C2C[C@@H](O)CCC2C(C(=O)OCCl)C[C@H]1O (some centres undefined) | > 100 µM (inactive) | > 100 µM (inactive) | > 100 µM (inactive) | > 100 µM (inactive) | > 100 µM | > 100 µM (inactive) | > 100 µM (inactive) | > 100 µM (inactive) |  | > 100 µM (inactive) | > 100 µM (inactive) | > 100 µM (inactive) | > 100 µM (inactive) | > 100 µM (inactive) | > 100 µM (inactive) |  |  |  |  |  |
| CCOC(=O)N1CCC(=O)C[C@@H]1C/C=C/P1(=O)O[C@H](c2ccccc2)C(C)N1C(C)C (some centres undefined) | > 100 µM (inactive) |  | > 100 µM (inactive) | > 100 µM (inactive) | > 100 µM | > 100 µM (inactive) | > 100 µM (inactive) | > 100 µM (inactive) | > 100 µM (inactive) | > 100 µM (inactive) | > 100 µM (inactive) | > 100 µM (inactive) | > 100 µM (inactive) | > 100 µM (inactive) | > 100 µM (inactive) |  |  |  |  | > 100 µM (inactive) |
| O=C(O)CCC(NC(=O)OCc1ccccc1)C(=O)NC(Cc1c[nH]cn1)C(=O)O (stereo not drawn) (Cbz-Glu-His-OH; configuration not given here) | > 100 µM (inactive) | > 100 µM (inactive) |  | > 100 µM (inactive) | > 100 µM | > 100 µM (inactive) | > 100 µM (inactive) | > 100 µM (inactive) | > 100 µM (inactive) | > 100 µM (inactive) | > 100 µM (inactive) | > 100 µM (inactive) | > 100 µM (inactive) | > 100 µM (inactive) | > 100 µM (inactive) | > 100 µM (inactive) | > 100 µM (inactive) | > 100 µM (inactive) | > 100 µM (inactive) | > 100 µM (inactive) |
| CC1=C(/C=C/C(C)=C/C=C/C(C)=C/C(=O)Nc2ccc(O)cc2)C(C)(C)CCC1 [FENRETINIDE] | 5.97 µM (inactive) | 2.61 µM (inactive) |  | 4.16 µM (inactive) | 5.92 µM | 2.02 µM (inactive) | 4.94 µM (inactive) | 5.13 µM (inactive) | 2.06 µM (inactive) | 3.94 µM (inactive) | 3.61 µM (inactive) | 4.15 µM (inactive) | 7.03 µM (inactive) | 5.48 µM (inactive) | 9.71 µM (inactive) | 1.74 µM (inactive) | 7.6 µM (inactive) | 3.09 µM (inactive) | 2.75 µM (inactive) | 10.6 µM (inactive) |
| CC(Cc1ccc(O)c(O)c1)C(C)Cc1ccc(O)c(O)c1 (centres undefined) [NORDIHYDROGUAIARETIC ACID] | 33 µM (inactive) | 18.7 µM (inactive) |  | 19.1 µM (inactive) | > 38.9 µM | 16.9 µM (inactive) | 15.9 µM (inactive) | 22.5 µM (inactive) | 20.1 µM (inactive) | 14.4 µM (inactive) | 17.4 µM (inactive) | 16.8 µM (inactive) | 19.8 µM (inactive) | 18.9 µM (inactive) | 18.2 µM (inactive) | 17.4 µM (inactive) | 18.8 µM (inactive) | 13.5 µM (inactive) | 10.2 µM (inactive) | 21.2 µM (inactive) |

Source: ChEMBL document CHEMBL1201862, “PubChem BioAssay data set” (2004)
